US9775351B2, “Ternary fungicidal and pesticidal mixtures” (BAYER CROPSCIENCE AG, priority 2012, dated 2017)

System: Rhizoctonia solani
Assay: Rhizoctonia test (cotton)/seed treatment
Type: in vivo
Conditions: greenhouse, 7 days at 20° C
Method: Rhizoctonia Test (Cotton)/Seed Treatment
The test is performed under greenhouse conditions.
Commercially available disease control agents, active compounds solved in N-methyl-2-pyrrolidon, or combinations thereof were diluted with water to the desired dosages. Cotton seeds were treated with this preparations and sown in 6*6 cm pots containing 4 cm of a 1:1 mix of steamed field soil and sand, mixed with a perlite-culture of Rhizoctonia solani.
Pots were incubated in the greenhouse for 7 days at 20° C.
Assessment consisted of counting of emerged seedlings and diseased plants. 0% means an efficacy which corresponds to that of the untreated control, while an efficacy of 100% means that all seedlings have emerged and are healthy.

CC1CC(C)(C)c2cccc(NC(=O)c3cn(C)nc3C(F)F)c21 (stereo not drawn) [(I-1), 3-(difluoromethyl)-1-methyl-N-(1,1,3-trimethyl-2,3-dihydro-1H-inden-4-yl)-1H-pyrazole-4-carboxamide]
Efficacy in % (application rate 10 g a.i./dt): 41%

CN/C(=N\[N+](=O)[O-])NCc1cnc(Cl)s1 [clothianidin]
Efficacy in % (application rate 12 g a.i./dt): 24%

COCC(=O)N(c1c(C)cccc1C)C(C)C(=O)OC (stereo not drawn) [metalaxyl]
Efficacy in % (application rate 1 g a.i./dt): 12%
